{"source": "patent US20140096445A1", "about": "“METHOD OF CULTIVATION IN WATER DEFICIT CONDITIONS” (SYNGENTA PARTICIPATIONS AG, priority 2011, published 2014)", "assay_type_in_all_cases": "in vivo", "key": {"[1]": {"test_system": "corn", "assay": "Sprinkler irrigation management field test, full vs deficit irrigation, Examples 9-10", "conditions": "261 gai/ha, 60% irrigated deficit", "experimental": "A completely random test design (split plot) was conducted using Sprinkler Irrigation. This was an irrigation management test to study treatment effects on yield under full irrigation and deficit irrigation conditions. The field study was set up with four replications and tested on silt loam soil. Overhead sprinkler irrigation and overhead sprinkler chemigation was used in this study. Each plot was 4 rows wide (3 meters) by 9.1 meters long. Soil water status was monitored throughout the growing season using soil moisture sensors. Corn seed was planted with a precision planter at a depth of 2 inches and rows spaced at 30 inches. The planting population was 30,000 seeds per acre. Testing parameters, irrigation levels, and harvesting were conducted according to the University of Nebraska experimental procedure (see, e.g.,: Irmak, S, D. Z. Haman, and R. Bastug. Determination of Crop Water Stress Index for irrigation Timing and Yield Estimation of Corn. 2000. Agronomy Journal. 92:1221-1227). Moisture levels, irrigation levels, and plant health were measured throughout the growing season. Climatic variables were measured (air temperature, rainfall, solar and net radiation, relative humidity, rainfall, wind speed and direction) throughout the season. Irrigation for the fully irrigated treatments was scheduled according crop need based on soil water measurements. The deficit irrigation treatments were scheduled at approximately 60% of the fully irrigated plots (1.2 inches/acre vs. 2 inches of water/acre, respectively). Volumetric soil water content was measured on a weekly basis throughout the crop season to determine total water use. Maintenance crop protection products were applied as needed to manage weeds & pests throughout the season for all treatments including the control. Azoxystrobin (Quadris) was applied via overhead sprinkler irrigation at 261 grams active ingredient/hectare or by foliar application (tractor mounted sprayer) at 261 grams active ingredient/hectare at approximately V6 & R1 stages of the corn. Crop yield from each replication was recorded after harvest and adjusted to 15% moisture content."}, "[2]": {"test_system": "corn", "assay": "SDI chemigation field study under dryland/rainfed conditions, Examples 15-16", "conditions": "261 gai/ha, 0% irrigated rainfed/dryland"}, "[3]": {"test_system": "corn", "assay": "Subsurface drip irrigation (SDI) chemigation field study, limited (deficit) vs fully irrigated, Examples 1-2", "conditions": "261 gai/ha, 50% irrigated deficit"}, "[4]": {"test_system": "soybean", "assay": "Lateral-move sprinkler irrigation field study on soybean, Examples 29-30", "conditions": "for % IWUE Increase over Untreated / % Seed Mass Increase over Untreated / % Yield Increase over Untreated / IWUE (water productivity) / Seed Mass / Yield: foliar 150 gai/ha, average of 60% & 100% irrigated"}, "[5]": {"test_system": "corn", "assay": "Greenhouse subsurface drip irrigation trial, deficit irrigated, Examples 4-8", "conditions": "for % Yield Increase by Product over Untr./50% Irr. / Yield: SDI chemigated at V3/V4, 50% irrigated deficit, Azoxystrobin 261, PPZ 126, TXP 250, PBZ 12.5, TMX 70 gai/ha; for Yield compared with the control, in words: water stress regime (50% irrigated), SDI", "experimental": "A greenhouse subsurface drip irrigation trial was conducted on corn to evaluate treatment effects on yield in fully irrigated vs. deficit irrigated conditions. In this experiment, standardized growth conditions were applied across all corn treatments including: soil-water availability, soil texture and composition, soil chemical and physical properties, meteorological and environmental parameters, and plant nutrition in a greenhouse. No indication of plant disease or pest damage was observed over the course of the study and no pest management program was necessary. A homogeneous sand-organic matter soil mixture (0.18% organic matter) was used as the growth medium in 55-gal containers. These containers were used as a weighing lysimeter, where daily changes in system weight were used to calculate plant transpiration. Four corn plants were grown in each 55-gal container. Three 55-gal containers (12 plants total) made up each treatment. All irrigation and chemical treatments were applied via sub-surface irrigation. Chemical treatments consisted of: azoxystrobin (Quadris), paclobutrazol (Trimmit), trinexapac-ethyl (Moddus), and propiconazole (Tilt) at maximum labeled rates.\nCorn plants were grown from seed and transplanted in the 55-gal drums approximately 14 days after planting. Uniform adequate irrigation was applied up to growth stage V3/V4 to ensure plant establishment. Chemical treatment applications were applied at growth stage V3/V4 via sub-surface chemigation. At stage V3/V4, irrigation was decreased to replicate deficit water conditions across all treatments for the remainder of the study period. Irrigation was managed daily to maintain 50% plant-available water. Visual signs of abiotic plant stress were observed approximately 30 days after chemical application. All corn plants were grown to yield and cobs were harvested when kernels were uniformly dry (15% moisture content). Root architecture, specifically relative number of fine roots, was measured at within 2 weeks of harvest using a digital imaging technique. Fine roots are related to water uptake productivity, which is directly tied to the ability of the plant to access soil-water under stress."}, "[6]": {"test_system": "soybean", "assay": "Sprinkler irrigation field study on soybean yield and WUE, Table 14 (treatments 31-32)"}, "[7]": {"test_system": "corn", "assay": "SDI split plot field study, 115 day maturity corn hybrid, deficit vs fully irrigated, Example 3", "conditions": "261 gai/ha, 50% irrigated deficit"}, "[8]": {"conditions": "Azoxy 150 gai/ha foliar, 2 applications, alone or + Acibenzolar-S-methyl 10 gai/ha, 60% irrigated deficit"}}, "note": "Marks after values point to notes of the source that are not given here.", "data": [{"smiles": "CO/C=C(/C(=O)OC)c1ccccc1Oc1cc(Oc2ccccc2C#N)ncn1", "note": "[Azoxystrobin, azoxystrobin]", "values": [{"measurement": "Yield", "setting": "[1]; foliar-applied (V6 & R1)", "value": 196, "unit": "Bu./acre"}, {"measurement": "Azoxystrobin % Yield Increase over 60% Untr.", "setting": "[1]; foliar-applied", "value": "+3% Incr."}, {"measurement": "Azoxystrobin % Yield Increase over 100% Untr.", "setting": "[1]; foliar-applied", "value": "+4% Incr."}, {"measurement": "Yield", "setting": "[1]; sprinkler chemigated (V6 & R1)", "value": 197, "unit": "Bu./acre"}, {"measurement": "Azoxystrobin % Yield Increase over 60% Untr.", "setting": "[1]; sprinkler chemigated", "value": "+4% Incr."}, {"measurement": "Azoxystrobin % Yield Increase over 100% Untr.", "setting": "[1]; sprinkler chemigated", "value": "+5% Incr."}, {"measurement": "Yield", "setting": "[2]; SDI chemigated (V6 & R1)", "value": 166.2, "unit": "Bu./acre"}, {"measurement": "Azoxystrobin % CWUE Increase over Untr./0% irr.", "setting": "[2]; SDI chemigated", "value": "+142% incr over"}, {"measurement": "Azoxystrobin % Yield Increase over Untr./0% irr.", "setting": "[2]; SDI chemigated", "value": "+9.6% incr over"}, {"measurement": "CWUE (crop water use efficiency)", "setting": "[2]; SDI chemigated", "value": 1.125, "unit": "Bu./inch"}, {"measurement": "Yield", "setting": "[2]; foliar applied (V6 & R1)", "value": 161.8, "unit": "Bu./acre"}, {"measurement": "Azoxystrobin % CWUE Increase over Untr./0% irr.", "setting": "[2]; foliar applied", "value": "+108% incr over"}, {"measurement": "Azoxystrobin % Yield Increase over Untr./0% irr.", "setting": "[2]; foliar applied", "value": "+6.7% incr over"}, {"measurement": "CWUE (crop water use efficiency)", "setting": "[2]; foliar applied", "value": 0.965, "unit": "Bu./inch"}, {"measurement": "Yield", "setting": "[3]; SDI chemigated twice (V8 & V8+14da.)", "value": 217, "unit": "Bu./acre"}, {"measurement": "Azoxystrobin % IWUE Increase over Untr./50% Irr.", "setting": "[3]; SDI chemigated", "value": "+40% incr."}, {"measurement": "Azoxystrobin % IWUE Increase over Untr./100% irr.", "setting": "[3]; SDI chemigated", "value": "+114% incr."}, {"measurement": "Azoxystrobin % Yield Increase over Untr./50% Irr.", "setting": "[3]; SDI chemigated", "value": "+11% incr."}, {"measurement": "Azoxystrobin % Yield Increase over Untr./100% irr.", "setting": "[3]; SDI chemigated", "value": "+2.4% incr."}, {"measurement": "IWUE (irrigation water use efficiency)", "setting": "[3]; SDI chemigated", "value": 22.9, "unit": "Bu./inch"}, {"measurement": "Azoxystrobin % IWUE Increase over Untr./100% irr.", "setting": "[3]; SDI chemigated, listed as Quadris", "value": 114, "unit": "%"}, {"measurement": "Yield", "setting": "[3]; foliar applied twice (V8 & V8+14da.)", "value": 211, "unit": "Bu./acre"}, {"measurement": "Azoxystrobin % IWUE Increase over Untr./50% Irr.", "setting": "[3]; foliar applied", "value": "+29% incr."}, {"measurement": "Azoxystrobin % IWUE Increase over Untr./100% irr.", "setting": "[3]; foliar applied", "value": "+97% incr."}, {"measurement": "Azoxystrobin % Yield Increase over Untr./50% Irr.", "setting": "[3]; foliar applied", "value": "+11% incr."}, {"measurement": "Azoxystrobin % Yield Increase over Untr./100% irr.", "setting": "[3]; foliar applied", "value": "+0% incr. over"}, {"measurement": "IWUE (irrigation water use efficiency)", "setting": "[3]; foliar applied", "value": 21.1, "unit": "Bu./inch"}, {"measurement": "Seed mass, statistical statement", "setting": "[4]; all Quadris treatments", "value": "Statistically significant difference in seed mass"}, {"measurement": "% IWUE Increase over Untreated", "setting": "[4]; one application", "value": "+2% over"}, {"measurement": "% Seed Mass Increase over Untreated", "setting": "[4]; one application", "value": "+3% over"}, {"measurement": "% Yield Increase over Untreated", "setting": "[4]; one application", "value": "+2% over"}, {"measurement": "IWUE (water productivity)", "setting": "[4]; one application", "value": 129, "unit": "lbs/acre-inch"}, {"measurement": "Seed Mass", "setting": "[4]; one application", "value": 148, "unit": "a mg"}, {"measurement": "Yield", "setting": "[4]; one application", "value": 48.4, "unit": "Bu./acre"}, {"measurement": "Water productivity, in words", "setting": "[4]; soybean, sprinkler irrigation", "value": "increase in water productivity"}, {"measurement": "% IWUE Increase over Untreated", "setting": "[4]; two applications", "value": "+6% over"}, {"measurement": "% Seed Mass Increase over Untreated", "setting": "[4]; two applications", "value": "+6% over"}, {"measurement": "% Yield Increase over Untreated", "setting": "[4]; two applications", "value": "+5% over"}, {"measurement": "IWUE (water productivity)", "setting": "[4]; two applications", "value": 133, "unit": "lbs/acre-inch"}, {"measurement": "Seed Mass", "setting": "[4]; two applications", "value": 151, "unit": "a mg"}, {"measurement": "Yield", "setting": "[4]; two applications", "value": 49.7, "unit": "Bu./acre"}, {"measurement": "% Yield Increase by Product over Untr./50% Irr.", "setting": "[5]", "value": "+12.5% Incr. over Untr./50% Irr."}, {"measurement": "Yield", "setting": "[5]", "value": "2077† Kg/Ha"}, {"measurement": "Yield compared with the control, in words", "setting": "[5]", "value": "statistically higher than the control"}, {"measurement": "% WUE Increase over the 100% irrigated Control", "setting": "[6]; [8]", "value": 11, "unit": "% Increase"}, {"measurement": "Treatment % Yield Increase over 60% Untreated", "setting": "[6]; [8]", "value": "+6% Incr."}, {"measurement": "Treatment % Yield Increase over 100% Untreated", "setting": "[6]; [8]", "value": "+11% Incr."}, {"measurement": "WUE (water productivity)", "setting": "[6]; [8]", "value": 4.1, "unit": "bushels/acre-inch"}, {"measurement": "Yield", "setting": "[6]; [8]", "value": 72, "unit": "Bu./acre"}, {"measurement": "Yield compared with the untreated, in words", "setting": "[6]; Azoxystrobin: foliar (2 applications) at 60% & 100% irrigated", "value": "significant differences in yield"}, {"measurement": "WUE differences, in words", "setting": "[6]; water deficit regime", "value": "Good WUE differences"}, {"measurement": "Yield", "setting": "[7]; foliar twice (V8 & V8+14da.)", "value": 250, "unit": "Bu./acre"}, {"measurement": "Azoxystrobin % IWUE Increase over Untr./50% Irr.", "setting": "[7]; foliar", "value": "+3% incr. over"}, {"measurement": "Azoxystrobin % IWUE Increase over Untr./100% Irr.", "setting": "[7]; foliar", "value": "+7% incr. over"}, {"measurement": "Azoxystrobin % Yield Increase over Untr./50% Irr.", "setting": "[7]; foliar", "value": "+3% incr. over"}, {"measurement": "Azoxystrobin % Yield Increase over Untr./100% Irr.", "setting": "[7]; foliar", "value": "+0% incr. over"}, {"measurement": "IWUE (water productivity)", "setting": "[7]; foliar", "value": 494, "unit": "lbs./acre in."}]}, {"smiles": "CCOC(=O)C1CC(=O)C(=C(O)C2CC2)C(=O)C1", "note": "(stereo not drawn) [TXP, trinexapac-ethyl]", "values": [{"measurement": "% Yield Increase by Product over Untr./50% Irr.", "setting": "[5]", "value": "+15.6% Incr. over Untr./50% Irr."}, {"measurement": "Yield", "setting": "[5]", "value": "2133† Kg/Ha"}, {"measurement": "Yield compared with the control, in words", "setting": "[5]", "value": "statistically higher than the control"}]}]}
